In patent US9212152B2, “Process for the preparation of N-hydroxy-1-(1-alkyl-1H-tetrazol-5-yl)-1-phenylmethanimine derivatives” (BAYER INTELLECTUAL PROPERTY GMBH, priority 2012, dated 2015):

Assay: log P determination
Assay type: physicochemical
Conditions: pH 2.7

- logP: 1.45
SMILES: Cn1nnnc1C(=NO)c1ccccc1 [Example 1, sodium {[(1-methyl-1H-tetrazol-5-yl)(phenyl)methylene]amino}oxidanide]
